The values below come from patent US9790211B2, “5-amino-quinoline-8-carboxamide derivatives as 5-HT4 receptor agonists” (SUVEN LIFE SCIENCES LIMITED, priority 2013, dated 2017).

The subject of one series is Male Wistar rats. Kind of series: Object recognition task model. It counts as in vivo. The settings on record: dose mg/kg: Ex 1 0.1, Ex 2 0.03, Ex 4 0.03, Ex 13 1, Ex 23 0.01, Ex 37 10, Ex 43 0.3; for Exploration time mean ± S.E.M, Familiar object / Exploration time mean ± S.E.M, Novel object: choice trial T2, p.o.; for Inference: p.o. How it is done: The cognition enhancing properties of compounds of this invention were estimated by using this model.
Male Wistar rats (230-280 grams) were used as experimental animals. Four animals were housed in each cage. Animals were kept on 20% food deprivation before one day and given water ad libitum throughout the experiment and maintained on a 12 hours light/dark cycle. Also the rats were habituated to individual arenas for 1 hour in the absence of any objects.
One group of 12 rats received vehicle (1 mL/Kg) orally and another set of animals received compound of the formula (I) either orally or i.p., before one hour of the familiar (T1) and choice trial (T2).
The experiment was carried out in a 50×50×50 cm open field made up of acrylic. In the familiarization phase, (T1), the rats were placed individually in the open field for 3 minutes, in which two identical objects (plastic bottles, 12.5 cm height×5.5 cm diameter) covered in yellow masking tape alone (a1 and a2) were positioned in two adjacent corners, 10 cms from the walls. After 24 hours of the (T1) trial for long-term memory test, the same rats were placed in the same arena as they were placed in T1 trial. Choice phase (T2) rats were allowed to explore the open field for 3 minutes in presence of one familiar object (a3) and one novel object (b) (Amber color glass bottle, 12 cm high and 5 cm in diameter). Familiar objects presented similar textures, colors and sizes. During the T1 and T2 trial, explorations of each object (defined as sniffing, licking, chewing or having moving vibrissae whilst directing the nose towards the object at a distance of less than 1 cm) were recorded separately by stopwatch. Sitting on an object was not regarded as exploratory activity, however, it was rarely observed.
T1 is the total time spent exploring the familiar objects (a1+a2).
T2 is the total time spent exploring the familiar object and novel object (a3+b).
The object recognition test was performed as described by Behaviour Brain Research, (1988), 31, 47-59.

Series [1] addresses T1, recombinant human 5-HT4 receptor (Homo sapiens, UniProt Q13639).
T1 construct: expressed in transfected cells
Kind of series: Determination of EC50 values for 5-HT4 receptor (CHO cells, pCRE-Luc reporter). It counts as cell-based. The settings on record: for Emax: CHO; for EC50: CHO cells, human 5-HT4 receptor, luciferase reporter, 4 hours incubation. How it is done:
Determination of EC50 Values for 5-HT4 Receptor
A stable CHO cell line expressing recombinant human 5-HT4 receptor and pCRE-Luc reporter system was used for cell-based assay. The assay offers a non-radioactive based approach to determine binding of a compound to GPCRs. In this specific assay, the level of intracellular cyclic AMP, which is modulated by activation, or inhibition of the receptor is measured. The recombinant cells harbor luciferase reporter gene under the control of cAMP response element.
The above cells were grown in 96 well clear bottom white plates in Hams F12 medium containing 10% fetal bovine serum (FBS). Prior to the addition of compounds or standard agonist, cells were serum starved overnight. Increasing concentrations of test compounds were added in OptiMEM medium to the cells. The incubation was continued at 37° C. in CO2 incubator for 4 hours. Medium was removed and cells were washed with phosphate buffered saline. The cells were lysed and luciferase activity was measured in a Luminometer. Luminescence units were plotted against the compound concentrations using Graphpad software.
A general note: Reporter assays use an easily measured gene product as a stand-in for the process of interest.

Series [2] in a line: Rodent brain penetration study. It counts as in vivo, Male Wistar rats. The settings on record: male, Wistar, rat, brain, po, 3 mg/kg, 3 mg/kg oral (gavage), read-out: Single dose Brain Penetration (Cb/Cp). As to the method: Male Wistar rats (225±25 grams) were used as experimental animals. Three animals were housed in each cage. Animals were given water and food ad libitum throughout the experiment and maintained on a 12 hours light/dark cycle. Brain penetration was determined in discrete manner in rats. One day prior to dosing day, male wistar rats (225-250 grams) were acclimatized. After acclimatization the rats were grouped according to their weight. In each group, 3 animals were kept in individual cage and allowed free access to food and water. At each time point (0.50, 1, and 2 hours) n=3 animals were used. The compounds of formula (I) were suitably preformulated and administered orally at (free base equivalent) 3 mg/kg. Blood samples were removed via, cardiac puncture by using isoflurane anesthesia. The animals were sacrificed to collect brain tissue. Plasma was separated and brain samples were homogenized and stored frozen at −20° C. until analysis. The concentrations of the compounds of formula (I) in plasma and brain were determined using LC-MS/MS method. The compounds of formula (I) were quantified in plasma and brain homogenate by qualified LC-MS/MS method using suitable extraction technique. The compounds of formula (I) were quantified in the calibration range of 1-500 ng/mL in plasma and brain homogenate. Study samples were analyzed using calibration samples in the batch and quality control samples spread across the batch. Extent of brain-plasma ratio was calculated (Cb/Cp).

Series [3] in a line: Rodent pharmacokinetic study. It counts as in vivo, Male wistar rats. Particulars: plasma, Wistar/Male rat; for bioavailability: 3 mg/kg oral vs 1 mg/kg intravenous. How it is done: Male wistar rats (225±25 grams) were used as experimental animals. Three to five animals were housed in each cage. Two days prior to dosing day, male wistar rats (225-250 grams) were anesthetized with isoflurane for surgical placement of jugular vein catheter. Animals were fasted over night before oral dosing (p.o) and food pellets were allowed 2 hours post dosing, whereas during intravenous dosing food and water were provided as ad libitum. Three rats were dosed with compounds of formula (I) (3 mg/kg) orally and intravenously (1 mg/kg).
At each time point blood was collected through jugular vein and immediately replenish with an equivalent volume of normal saline from freely moving rats. Collected blood was transferred into a labeled eppendr off containing 10 μL of heparin as anticoagulant. Typically blood samples were collected as following time points: Pre dose, 0.08 (only i.v.), 0.25, 0.5, 1, 2, 4, 6, 8, and 24 hours post dose (n=3). Blood was centrifuged at 4000 rpm for 10 minutes. Plasma was prepared and stored frozen at −20° C. until analysis. The concentrations of the compounds of formula (I) were quantified in plasma by qualified LC-MS/MS method using suitable extraction technique. The compounds of formula (I) were quantified in the calibration range around 2-2000 ng/mL in plasma. Study samples were analyzed using calibration samples in the batch and quality control samples spread across the batch.
Pharmacokinetic parameters Cmax, Tmax, AUC1, T1/2 and Bioavailability were calculated by non-compartmental model using standard non-coinpartmental model by using WinNonLin 5.0.1 or Phoenix WinNonlin 6.2 version Software package.

T1 sequence (Q13639 whole entry): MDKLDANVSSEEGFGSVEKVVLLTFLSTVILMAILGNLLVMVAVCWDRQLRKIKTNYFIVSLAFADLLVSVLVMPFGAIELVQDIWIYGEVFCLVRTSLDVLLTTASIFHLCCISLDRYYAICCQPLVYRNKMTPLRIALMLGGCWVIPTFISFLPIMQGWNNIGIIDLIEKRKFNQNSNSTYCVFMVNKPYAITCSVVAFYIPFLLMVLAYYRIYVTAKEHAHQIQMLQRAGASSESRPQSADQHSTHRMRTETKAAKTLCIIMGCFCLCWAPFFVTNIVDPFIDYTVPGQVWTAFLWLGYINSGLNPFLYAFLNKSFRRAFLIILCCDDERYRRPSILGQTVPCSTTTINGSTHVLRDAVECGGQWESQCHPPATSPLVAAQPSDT

A word on the Emax: it is the size of the effect at its maximum, as opposed to the concentration needed. One may read the EC50 as the concentration needed to bring the measured effect to its halfway point. As usually defined, the AUC(0-t) is the area under the concentration-time curve up to a stated or last time point. Low readings indicate low exposure, high ones high exposure. What is called Cmax is the maximum level reached in the sampled fluid or tissue. By Tmax is commonly meant the time from dosing to the highest level. For orientation: half-life means how long it takes for the measured level to halve. For orientation: bioavailability means the share of a dose that reaches the circulation, judged against a reference dose that is usually intravenous. Read a high bioavailability as much systemic uptake. `CC(C)(O)CN1CCC(F)(CNC(=O)c2cc(Cl)c(N)c3cccnc23)CC1.O=C(O)C(O)C(O)C(=O)O` [Example 37, 5-Amino-6-chloro-N-{[4-fluoro-1-(2-hydroxy-2-methylpropyl)-4-piperidinyl]methyl} quinoline-8-carboxamide L(+)-tartarate]: in the series on Male Wistar rats, the “Exploration time mean ± S.E.M, Familiar object” value came to 8.45 ± 1.65 s; the “Exploration time mean ± S.E.M, Novel object” value turned out to be 17.81 ± 1.42 s; the Inference result was “Active”. In series [1], the Emax turned out to be 62% and the EC50 amounted to 2.2 nM. Besides, in series [2], the Kp amounted to 0.61 ± 0.07. For the same molecule, in series [3] (1 mg/kg intravenous (bolus)), the AUC(0-t) stood at 274 ± 25 ng·h/mL, the Cmax worked out at 324 ± 52 ng/mL, the time to peak (Tmax) was determined as 4.8 min and the half-life is 114 ± 6 min. Besides, in series [3] (3 mg/kg oral (gavage)), the AUC(0-t) turned out to be 200 ± 49 ng·h/mL, the Cmax stood at 137 ± 37 ng/mL, the time of peak concentration (Tmax) stood at 15 min and the half-life was 78 ± 18 min. This molecule gave a bioavailability in series [3] of 24 ± 6%.
For the molecule `CC(C)(O)CN1CCC(F)(CNC(=O)c2cc(F)c(N)c3cccnc23)CC1.O=C(O)C(O)C(O)C(=O)O` [Example 43, 5-Amino-6-fluoro-N-{[4-fluoro-1-(2-hydroxy-2-methylpropyl)-4-piperidinyl]methyl} quinoline-8-carboxamide L(+)-tartarate], in the series on Male Wistar rats, the “Exploration time mean ± S.E.M, Familiar object” value stood at 9.30 ± 0.93 s; the “Exploration time mean ± S.E.M, Novel object” value is 16.09 ± 2.63 s; the Inference entry was “Active”. Also, in series [1], the Emax worked out at 43% and the EC50 was determined as 2.9 nM. For the same molecule, in series [2], the Kp worked out at 0.93 ± 0.26. Besides, in series [3] (1 mg/kg intravenous (bolus)), the AUC(0-t) was 362 ± 83 ng·h/mL, the Cmax was found to be 306 ± 47 ng/mL, the Tmax came to 4.8 min and the half-life was 114 ± 54 min. Moreover, in series [3] (3 mg/kg oral (gavage)), the AUC(0-t) was found to be 373 ± 39 ng·h/mL, the Cmax amounted to 231 ± 40 ng/mL, the Tmax turned out to be 19.8 ± 8.4 min and the half-life was 204 ± 132 min. Moreover, the bioavailability in series [3] was 34 ± 4%.
For `Nc1c(Cl)cc(C(=O)NCC2C3CN(CC4CCOCC4)CC23)c2ncccc12.O=C(O)C(O)C(O)C(=O)O` (stereo not drawn) [Example 2, 5-Amino-6-chloro-N-{[3-(tetrahydro-2H-pyran-4-ylmethyl)-3-azabicyclo[3.1.0]hex-6-yl]methyl}quinoline-8-carboxamide L(+)-tartarate], in the series on Male Wistar rats, the “Exploration time mean ± S.E.M, Familiar object” value was 7.46 ± 1.30 s; the “Exploration time mean ± S.E.M, Novel object” value was 15.75 ± 1.65 s; the Inference entry is on record as “Active”. In series [1], the Emax is 59% and the 50% effective concentration (EC50) is 0.5 nM. Also, the Kp in series [2] came to 1.31 ± 0.1. In series [3] (1 mg/kg intravenous (bolus)), the AUC(0-t) stood at 284 ± 10 ng·h/mL, the Cmax is 252 ± 30 ng/mL, the Tmax was determined as 4.8 min and the half-life was 96 ± 6 min. Further, in series [3] (3 mg/kg oral (gavage)), the exposure AUC(0-t) stood at 531 ± 51 ng·h/mL, the peak level (Cmax) was 140 ± 24 ng/mL, the Tmax was 25.2 ± 8.4 min and the half-life is 72 ± 6 min. Also, the bioavailability in series [3] was 62 ± 6%.
As for `Nc1c(Cl)cc(C(=O)NCC2(F)CCN(CC3(O)CCOCC3)CC2)c2ncccc12.O=C(O)C(O)C(O)C(=O)O` [Example 27, 5-Amino-6-chloro-N-{[4-fluoro-1-(4-hydroxytetrahydro-2H-pyran-4-ylmethyl)-4-piperidinyl]methyl}quinoline-8-carboxamide L(+)-tartarate], in series [1], the maximal effect (Emax) was 63% and the EC50 was found to be 0.6 nM. Also, the Kp in series [2] was determined as 0.4 ± 0.02. Also, in series [3] (1 mg/kg intravenous (bolus)), the AUC(0-t) is 401 ± 15 ng·h/mL, the peak level (Cmax) was 448 ± 41 ng/mL, the Tmax is 4.8 min and the half-life is 102 ± 24 min. In addition, in series [3] (3 mg/kg oral (gavage)), the AUC(0-t) is 236 ± 72 ng·h/mL, the concentration peaked (Cmax) at 173 ± 48 ng/mL and the Tmax was 15 min. In series [3], this molecule yielded a bioavailability of 20 ± 6%.
